# Laboratory results published in PubChem BioAssay (NCI).
#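 Grown in 96-well plates, cells were treated for 48 hours with each compound at five concentrations. Insufficient inhibition: endpoint recorded as highest concentration tested. TGI marks complete inhibition of growth.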
# How the values were obtained:
# Experiment in all cases: DTP human tumour cell line panel, 48 h
# HL-60(TB) leukemia = test system: HL-60(TB) leukemia
# UO-31 renal = test system: UO-31 renal
# RPMI-8226 leukemia = test system: RPMI-8226 leukemia
# CAKI-1 renal = test system: CAKI-1 renal
# SNB-75 CNS = test system: SNB-75 CNS
# OVCAR-5 ovarian = test system: OVCAR-5 ovarian
# U251 CNS = test system: U251 CNS
# MDA-N = test system: MDA-N
# DU-145 prostate = test system: DU-145 prostate
# ACHN renal = test system: ACHN renal
SMILES,TGI (HL-60(TB) leukemia) [µM],TGI (UO-31 renal) [µM],TGI (RPMI-8226 leukemia) [µM],TGI (CAKI-1 renal) [µM],TGI (SNB-75 CNS) [µM],TGI (OVCAR-5 ovarian) [µM],TGI (U251 CNS) [µM],TGI (MDA-N) [µM],TGI (DU-145 prostate) [µM],TGI (ACHN renal) [µM]
O=c1[nH][nH]c(=O)n1CCCCCCn1c(=O)[nH][nH]c1=O,> 100,> 100,> 100,> 100,> 100,> 100,> 100,> 100,> 100,–
Cc1ccc(S(=O)(=O)n2c3c(c4ccccc42)CCN2C[C@H]([C@H](C)Br)CC[C@@H]32)cc1,> 100,> 100,> 100,> 100,> 100,> 100,> 100,> 100,> 100,> 100
O=S(=O)(O)C(CO)c1ccccc1 (centres undefined) (tested in a mixture with another compound),> 44.5,> 100,> 100,> 100,> 100,> 100,> 100,> 100,> 100,> 100
O=C(O)CN1CCNCCN(CC(=O)O)CCN(CC(=O)O)CCNCC1,64.6,> 100,> 100,> 100,> 100,> 100,> 100,> 100,> 100,> 100
C=CCc1cc(-c2nc(=S)[nH][nH]2)ccc1N=NNc1ccc(C(=O)O)cc1,> 100,> 100,> 100,> 100,> 100,> 100,> 100,> 100,> 100,> 100
COc1ccc(C(=O)/C=C/c2ccc(OCCCOc3ccc(/C=C/C(=O)c4ccc(OC)cc4)cc3)cc2)cc1,> 100,> 100,> 100,> 100,> 100,> 100,> 100,> 100,> 100,> 100
O=C(/C=C/c1ccccc1)Oc1ccc(C(=O)/C=C/c2ccccc2)cc1,8.2,15.3,15.4,19.8,19.8,21.4,–,12.6,14.9,18.3
S=C1NC2=C(CSC/C2=C\c2cccc(Br)c2)C(c2cccc(Br)c2)N1 (centres undefined),> 100,–,> 100,> 100,> 100,> 100,> 100,> 100,> 100,> 100
Cc1nc(C)c(N2CCN([N+](=O)[O-])CC2)c(=O)[nH]1,> 100,> 100,> 100,> 100,0.611,–,> 100,> 100,> 100,> 100
CCNC(=S)NNC(=O)C12CC3CC(CC(C3)C1)C2,> 100,> 100,> 100,> 100,> 100,> 100,> 100,> 100,> 100,> 100
O=C1C=C/C(=N\N=C(c2ccccc2)c2ccccc2)O1,> 10,–,> 10,> 10,> 10,–,–,> 10,> 10,–
CCCCCCCCCCCC[S+](C)C,14.1,27.2,28.4,10.3,16.6,22.5,31.7,15.5,17.6,19.4
CC1(C)OC[C@@H](O)[C@H](C#N)CO1,> 100,> 100,> 100,> 100,> 100,> 100,> 100,> 100,> 100,> 100
COc1ccc(-c2nc(SCC(=O)NNC(=S)Nc3ccccc3)[nH]c2-c2ccc(OC)cc2)cc1,29.9,> 100,–,> 100,> 100,49,32,50.3,> 100,64.2
CC(C)SC(=S)Sc1c(Cl)c(Cl)nc(Cl)c1Cl,5.61,21.2,4.29,8.49,–,33.1,14,11.1,11.3,18.6
COC(=O)/C=C\C(C#N)(C#N)N=Cc1ccc(C)cc1,8.14,7.16,3.52,6.53,31,37.8,27.7,14,15.7,6.04
O=C1c2cc(-c3ccccc3)cnc2S(=O)(=O)N1c1ccc(Br)cc1,> 100,> 100,82.2,> 100,78.8,> 100,90.3,> 100,> 100,> 100
N#CC(C#N)=C1SC(=Nc2ccccc2)C(=Nc2ccccc2)N1c1ccccc1,> 24.6,25.3,> 55.3,> 56.3,> 100,47.3,41,37.8,> 100,71.3
Cc1cc(/N=C/c2ccc(N(C)C)cc2)n(-c2ccccc2)n1,> 100,> 100,> 100,> 100,> 100,> 100,> 100,> 100,> 100,> 100
O=C(O)CN1CCN2CCCCCN(CC1)CCN(CC(=O)O)CC2,33.4,> 100,> 100,> 100,95.3,> 100,> 100,> 100,> 100,> 100
COC(C)(C)C1(O)CC[C@@H](C)CC1=O (some centres undefined),> 100,> 100,> 100,> 100,> 100,> 100,> 100,> 100,> 100,> 100
CC(c1ccccc1)N1CCN(C(C)c2ccccc2)CC1 (centres undefined),> 100,> 100,> 100,> 100,–,> 100,> 100,> 100,> 100,> 100
